Measured values reported in patent publication US20160287741A1, “METASTABLE SILVER NANOPARTICLE COMPOSITES WITH COLOR INDICATING PROPERTIES” (SIENNA LABS, INC., priority 2013, published 2016).

Tests used:
[1] = Gelled deodorant stick blends, silica stabilized vs non-stabilized nanoplates vs silver salt: settling, peak resonance shift, hue; assay type: physicochemical; settings: Table A blends
Description: Gelled sticks with silver nanoplates were prepared by blending water, dipropylene glycol and propylene glycol components, heating the resulting blends to 85° C., adding the poloxamine to the heated blend and mixing until clear, adding the sodium stearate to the heated blends and again mixing until clear, cooling the blends to 75° C. and adding the 2-amino-2-methylpropan-1-ol with agitation, cooling the blends to 71-73° C., and mixing in the remaining ingredients. Non-stabilized silver nanoplates and silica stabilized silver nanoplates were prepared according to the methods in example 1 and 2 respectively and added into separate blends. A silver salt was added to a separate blend. The blends were then allowed to cool to room temperature and gel.
A 100 microliter aliquot of from non-stabilized and silica stabilized silver blend solutions was added to a 96 well plate and allowed to cool to room temperature and gel.

[2] = Gelled deodorant stick blends, PVP nanoplates with or without borate vs silver salt: settling, peak resonance shift, hue; assay type: physicochemical; settings: Table B blends
Description: Gelled sticks with silver nanoplates were prepared by blending water, dipropylene glycol and propylene glycol components, heating the resulting blends to 85° C., adding the poloxamine to the heated blend and mixing until clear, adding the sodium stearate to the heated blends and again mixing until clear, cooling the blends to 75° C. and adding the 2-amino-2-methylpropan-1-ol with agitation, cooling the blends to 71-73° C., and then mixing in the remaining ingredients. PVP and borate stabilized silver nanoplates were prepared according to the methods in example 1 with the addition of PVP and borate into the mixture after synthesis. In one blend was added borate prior to adding silver nanoplates, in another blend borate was not added. A silver salt was added to a separate blend with no borate. The blends were then allowed to cool to room temperature and gel.
A 100 microliter aliquot from non-stabilized and silica stabilized silver blend solutions was added to a 96 well plate and allowed to cool to room temperature and gel.

[3] = EPA Reference Dose for Chronic Oral Exposure (RfD) for silver and intravenous conversion; design: species or system human population
Excerpt: We estimate less than half of the silver has diffused from the silicone into the IV fluid over 7 days based on the silver nanoplate plasmonic peak wavelength, which corresponds directly with the diameter decrease in the etched silver nanoplates. Even if all of the silver had diffused from the silicone into the IV fluid during 7 days, this would correspond to a daily body absorption of 1.6 micrograms per day. In the United States, the EPA has set a Reference Dose for Chronic Oral Exposure (RfD) of 5 micgrams per Kg per day for silver. RfD is the daily exposure to the human population (including sensitive subgroups) that is likely to be without an appreciable risk of deleterious effects during a lifetime. Oral dose is estimated based on a conversion of 4% absorption of dietary silver into the body. Thus, an intravenous RfD would be approximately 0.2 micrograms per day of silver. For a 70 Kg person, this corresponds to 14 micrograms per day.

[4] = EPA, United States; cited from earlier work

| Structure (SMILES) | settling in gelled deodorant blend [1] | settling in gelled deodorant blend [2] | intravenous RfD for a 70 Kg person ([3]; 70 Kg person) | intravenous RfD ([3]; conversion of 4% absorption of dietary silver) | Reference Dose for Chronic Oral Exposure (RfD) [4] |
| --- | --- | --- | --- | --- | --- |
| [Cl][Ag] [silver chloride, Silver Chloride] | exhibited settling | exhibited settling | – | – | – |
| [Ag] [silver] | – | – | 14 micrograms per day | approximately 0.2 micrograms per day | 5 micgrams per Kg per day |
